From patent US20020016369A1, “Use of nimesulide for the treatment of psoriasis and psoriatic arhtritis” (priority 2000, published 2002)

System: patients affected by psoriatic arthritis
Protocol: Controlled double-blind clinical trials were carried out on patients 18 to 70 years old affected by psoriatic arthritis showing at least three swollen joints, absence of rheumatoid factor and no other rheumatic conditions.
The patients, who received no previous pharmacological treatment with antirheumatic drugs during the three-month pre-study period, were treated for 4 weeks with Nimesulide (100 to 400 mg/day orally or application of a 3% gel twice a day).
At the end of the treatment period, the following parameters were evaluated:
number of tender and swollen joints
skin symptoms evaluated according to the Psoriasis Area Severity Index (PASI)

[1] = patients 18 to 70 years old, 4 weeks, 100 to 400 mg/day orally or 3% gel twice a day

SMILES: CS(=O)(=O)Nc1ccc([N+](=O)[O-])cc1Oc1ccccc1 [Nimesulide]
- action on joint flogosis (general statement of finding): beneficial action on joint flogosis
- effect on skin lesions (general statement of finding): remarkable improvement of such lesions
- clinical efficacy in oligopolyarticular psoriatic arthritis [1]: clinically effective in the treatment of oligopolyarticular psoriatic arthritis in a statistically significant way
- toxic or untoward effects (tolerability) [1]: no toxic or untoward effect, particularly no gastrointestinal adverse effect
